US20240018132A1, “5-HYDROXY-1,4-NAPHTHALENEDIONE FOR USE IN THE TREATMENT OF CANCER” (GODAVARI BIOREFINERIES LIMITED, priority 2020, published 2024)

Assays:
MDAMB231 [1] = test: Wound Healing Assay (WHA), breast cancer cell line; assay type: cell-based; conditions: IC10 conc. of compound
Description: (§1) Wound Healing Assay (WHA) determines the ability of cancer stem cells to heal the wound formed in a confluent monolayer.
(§2) Procedure: 0.35×10^6 cells were plated in each well of 6 Tissue Culture well plates. The plate was incubated for 48 hrs at 37° C., 5% CO2. […] IC10 conc. of the respective compound was added into each well. The plates were incubated at 37° C., 5% CO2 and the width of scratch was measured at various time intervals such as 6, 24 and 48 hours. Average of 3 distances were taken for each time point using IS camera Measure. A plot of average width of scratch in micrometer was plotted against the time interval after treatment.

MDAMB231 [2] = test: Soft agar colony-formation assay, breast cancer; assay type: cell-based; conditions: for anticancer activity in comparison with cisplatin, soft agar, breast cancer cell line: FIG. 51, MDAMB231; for IC50: Homo sapiens, MDA-MB-231, 168 h, Soft Agar Assay, 1 week, Alamar Blue
Description: (§3) The Soft Agar Colony-formation Assay is an anchorage-independent growth assay in soft agar, which is one of the most stringent assays for detecting malignant transformation of cells. For this assay, malignant cells are cultured with appropriate controls in soft agar medium for 1-2 weeks. Following this incubation period, formed colonies can either be analyzed morphologically using cell stain and quantifying the number of colonies formed.
(§4) Briefly, for Soft Agar Assay a mixture of 50 ul of 2× medium (taken appropriately as per cell line) and 50 ul of 1.2% Bacto Agar were plated on to each well of 96 well micro titer assay plate. 10 ul of cells (of specific plating efficiency pre standardized for respective cell line) were mixed with 20 ul of 2× medium and 30 ul of 0.8% of Bacto Agar and 1.6 ul of drug (of appropriate concentration) in a vial and transferred to the solidified pre layers of the assay plates. The cells were then allowed to grow and form colonies at 37° C. and 5% CO2 for 1 week. An intermittent feeding with 50 ul of appropriate 2× medium was performed after 3 days of experimental set up. 16 ul of Alamar Blue (1.5 mg/ml) was then added to all the wells to quantify the developed colonies. The plates were incubated for 24 hrs at 37° C. Absorbance was then measured at 630 nm. XY graph of log Percent viability was then plotted against log drug concentration.
(§5) Following plating efficiencies were standardized for Soft Agar Assay: […]

PC3 [3] = test: In vitro antiproliferative assay (MTT assay), prostate cancer cell line; assay type: cell-based; conditions: Homo sapiens, PC-3, 48 h, MTT assay, prostate cancer PC3, 48 hrs drug incubation
Summary of the method: (§6)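 Viability is derived from MTT reduction by cells treated for 48 h with test compounds diluted from a 0.1M DMSO stock. A 4 h incubation with 0.5 mg/ml MTT follows, with formazan taken up in DMSO.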

PC3 [4] = test: Wound Healing Assay (WHA), prostate cancer cell line; assay type: cell-based; conditions: IC10 conc. of compound
Description: as §1, §2

[5] = system: Aldehyde dehydrogenase (ALDH); test: Aldehyde Dehydrogenase (ALDH) assay, ELISA kit; assay type: cell-based; conditions: MDAMB231, 48 hrs
Description: Aldehyde dehydrogenases (ALDH) are a family of enzymes that catalyze the metabolism of exogenous and endogenous aldehydes, preventing the accumulation of potentially reactive and toxic aldehydes and their metabolites. In addition to their role in aldehyde metabolism, ALDH enzymes also play critical roles in other cellular processes such as cell proliferation, differentiation, and survival. ALDH also serves as a marker for certain stem cell populations including hematopoietic stem cells and certain cancer stem cells. ALDH concentration was determined by using ([…] Dx) ELISA kit by following protocol: • 1 Standards (50 μl)/sample (40 μl) were added to the respective wells, (except Blank). • 2. (10 μl) Antibody-Biotin conjugate was then added in each sample well (except Blank). • 3. (50 μl) of Horse Radish Peroxidase (HRP) Conjugate was then added to each well (except Blank). • 4. The plates were incubated for one hour at 37° C. in the incubator. • 5. Wash (4 times with wash buffer) and blot residual buffer by firmly tapping the plate on the absorbent paper. Wipe off any liquid from the bottom of the microtiter wells as any residue can interfere in the reading step. • 6. Add TMB substrate A (50 μl) and then TMB substrate B (50 μl) to each well including Blank as well. • 7. Incubate for 10 mins at 37° C. in dark. • 8. Add (50 μl) stop solution. Wells should turn from blue to yellow. • 9. Read absorbance at 450 nm. • 10 A X-Y graph of concentration vs optical density was plotted. ALDH concentration was calculated by substituting optical density values in the regression analysis equation.

PC3 [6] = test: Soft agar colony-formation assay, prostate cancer; assay type: cell-based; conditions: for anticancer activity in comparison with cisplatin, soft agar, prostate cancer cell line: FIG. 52, PC3; for IC50: Homo sapiens, PC-3, 168 h, Soft Agar Assay, 1 week, Alamar Blue
Description: as §3, §4, §5

PC3 [7] = test: In vitro sphere-forming assay (cancer stem cells), Prostosphere media; conditions: for 3D sphere count of PC3: Prostosphere media, 2000 cells/well, n = 6 ± S.D
MDAMB231 [8] = test: In vitro antiproliferative assay (MTT assay), breast cancer cell line; assay type: cell-based; conditions: Homo sapiens, MDA-MB-231, 48 h, MTT assay, breast cancer MDAMB231, 48 hrs drug incubation
Summary of the method: as §6

[9] = Homo sapiens, PC-3, read-out: % Viability of spheres (PC3)

SMILES | % inhibition of Wound Healing for Breast Cancer Cell line (MDAMB231) after 48 hrs (MDAMB231 [1]) | anticancer activity in comparison with cisplatin, soft agar, breast cancer cell line (MDAMB231 [2]) | IC50 (MDAMB231 [2]) | IC50 (PC3 [3]) | % inhibition of Wound Healing for Prostate Cancer Cell line (PC3) after 48 hrs (PC3 [4]) | % inhibition of ALDH on Breast Cancer Cell line (MDAMB231) after 48 hrs [5] | anticancer activity in comparison with cisplatin, soft agar, prostate cancer cell line (PC3 [6]) | IC50 (PC3 [6]) | viability at 0.025 µM (PC3 [7]; [9]) | viability at 0.25 µM (PC3 [7]; [9]) | viability at 2.5 µM (PC3 [7]; [9]) | viability at 25 µM (PC3 [7]; [9]) | 3D sphere count of PC3 (PC3 [7]; drug 0.025 uM) | 3D sphere count of PC3 (PC3 [7]; drug 0.25 uM) | 3D sphere count of PC3 (PC3 [7]; drug 2.5 uM) | 3D sphere count of PC3 (PC3 [7]; drug 25 uM) | IC50 (MDAMB231 [8]) | viability at 0.0025 µM (PC3 [7]; [9]) | 3D sphere count of PC3 (PC3 [7]; drug 0.0025 uM) | further results
O=C1C(c2ccc3c(c2)OCO3)=CC(=O)c2c(OCCCCN3CCOCC3)cccc21 [Formula 2, 5-(4-morpholinobutoxy)-2-(benzo[d][1,3]dioxol-6-yl)naphthalene-1,4-dione] | 53.69% | higher anticancer activity in comparison with cisplatin | 2080 nM | 344 nM | 45.25% | 76.09% | higher anticancer activity in comparison with cisplatin | 2650 nM | 77% | 65% | 39% | 21% | 63(±4) | 53(±3) | 32(±4) | 17(±3) | 566 nM | – | – | viability at 250 µM (PC3 [7]; [9]): 10%; 3D sphere count of PC3 (PC3 [7]; drug 250 uM): 8(±2)
COc1ccc(NC2=CC(=O)c3c(OCCN4CCOCC4)cccc3C2=O)cc1OC [Formula 40, 5-(2-morpholinoethoxy)-2-(3,4-dimethoxyphenylamino) naphthalene-1,4-dione] | 45.84% | higher anticancer activity in comparison with cisplatin | 353 nM | 1680 nM | 48.56% | 62.73% | higher anticancer activity in comparison with cisplatin | 422 nM | 65% | 47% | 34% | 17% | 57(±3) | 41(±3) | 30(±3) | 15(±3) | 951 nM | 80% | 70(±5) | –
O=C1C(NC2CCCCC2)=CC(=O)c2c(OCCN3CCOCC3)cccc21 [Formula 52] | 37.42% | higher anticancer activity in comparison with cisplatin | 3880 nM | 4320 nM | 34.7% | 74.69% | higher anticancer activity in comparison with cisplatin | 3270 nM | 77% | 62% | 49% | 30% | 63(±4) | 51(±3) | 40(±4) | 25(±3) | 3130 nM | 87% | 71(±3) | –
